Article PMC5074076, “Novel minimal physiologically-based model for the prediction of passive tubular reabsorption and renal excretion clearance” (European Journal of Pharmaceutical Sciences, 2016)

How the values were obtained:
[1] = Observed clearance ratio and fraction reabsorbed (Freab, Freab′) calculated from CLR, fu,p and GFR; conditions: for Apparent Freab / Apparent Freab’: calculated from observed CLR, fu,p and GFR; for Freab: observed/apparent, 1 - CLR/(GFR x fu,p), GFR 120 mL/min
Protocol: The clearance ratio was calculated from clinical data using Eqs. […] For the remaining drugs the fraction reabsorbed (Freab) was calculated using Eq.
GFR values for healthy subjects may vary as a result of biological as well as inter-individual variation and also the method of measurement. […] Individual GFR values for subjects in clinical trials databases were generally not available.
In the proposed model, the nephron is represented as five compartments, namely the glomerulus and four tubular regions, as depicted in Fig. 1. The tubular compartments in the model, listed in anatomical order starting from the glomerulus are: the proximal tubule (PT), the loop of Henle (LoH), the distal tubule (DT) and the collecting duct (CD). […] The relationship between Freab′ and Freab is shown in Eq. (11). The predicted overall Freab′ was calculated from the predicted Freab′ in each (i) tubular region (Freab,i′), as shown in Eq. (12).

[2] = Papp-Freab′ calibration of Caco-2 Papp with reference drugs and CLR prediction; design: species or system human; conditions: reference drugs; calibrated Caco-2 Papp after Hill equation fitting
Description: To account for this and to allow the Caco-2 data in the present study to be transferable to other assay formats/laboratories, a Papp–Freab′ calibration method was explored by splitting the available Papp and Freab′ data into ‘reference’ and internal ‘validation’ subsets. […] The calibration approach is proposed as a pragmatic method to account for inter-assay/inter-laboratory differences; herein it is applied to the current dataset only, and not external data as intended for future studies.
In order to evaluate the application of Papp–Freab′ calibration (Eq. (17)), 11 drugs were selected as reference ‘calibrator’ drugs (Papp,ref) covering a representative range of Freab′ and Papp values (Table 5). The remaining 34 drugs were treated as an internal ‘validation’ set.

[3] = LogD7.4 octanol-buffer, shake-flask (or ACD / BioByte); conditions: octanol/buffer, pH 7.4
Description: (§1) The pKa values associated with ionisable centres identified within a given drug were used to calculate the fraction of drug ionised at pH 6.5. Drugs were then classified into groups as follows: drugs with > 50% unionised at pH 6.5 were classified as “Neutral”; drugs with > 50% ionised as mono −/di −/tri-protic acids or bases were classified as “Acid” or “Base”, respectively; “Zwitterions” were classified as drugs with > 50% ionised, with the major ionised species having no net charge; all other drugs were classified as amphoteric. […] LogD6.5 for neutral, amphoteric and zwitterion drugs were assumed to be equal to LogD7.4.

[4] = Caco-2 apparent permeability (Papp), apical to basolateral, pH 6.5-7.4 gradient, efflux inhibitor cocktail; conditions: human, Caco-2, pH 6.5
Protocol: (§2) The assay was performed using the apical to basolateral pH gradient format of pH 6.5 to pH 7.4. […] The efflux transporter inhibitor cocktail was used to minimise the effect of efflux transporters expressed in Caco-2 cells (e.g. P-glycoprotein, BCRP and MRP2) on the estimate of apical to basolateral Papp of substrates for such transporters.

Caco-2 cell monolayers = assay: as above; conditions: Caco-2, apical to basolateral, pH 6.5 to 7.4, efflux inhibitor cocktail, 2 h
Protocol: as §2

[5] = cited from earlier work; for CLR: healthy adult subjects, overall weighted mean of literature values, absolute (not normalised), ref Supplementary Results Table S2.1; for Overall weighted mean CLR: healthy subjects, plasma and urine data from same subjects, normalised for subject weight and body surface area where necessary; for Overall weighted mean CLR / CLR Observed: ref Table S2.1; for CLR Observed: overall weighted mean of values obtained from a literature survey
[6] = Ionisation classification at pH 6.5 from pKa; type: physicochemical; conditions: predominant species (> 50%) at pH 6.5 from measured or calculated pKa
Description: as §1

[7] = LogD6.5 estimated from LogD7.4 and pKa; conditions: octanol/buffer, pH 6.5
Description: as §1

[8] = pKa, potentiometric AstraZeneca in-house assay (or ACD / BioByte); conditions: measured, potentiometric
Description: as §1

in vitro = conditions: human, Caco-2, pH 6.5
Protocol: as §2

[9] = design: method as in Hammarlund et al., 1985; Swärd et al., 2005; conditions: healthy subjects or cardiac surgery patients, well hydrated; ref Hammarlund et al., 1985; Swärd et al., 2005; cited from earlier work

Cc1cccc(C)c1NC(=O)C(C)N (centres unmarked) [Tocainide]
Apparent Freab [1]: 0.181 | Apparent Freab’ [1]: 0.183 | Freab [1]: 0.18 | Papp,ref,calibrated [2]: 4.68 × 10^− 6 cm/s | logD [3]: 0.03 | Papp A→B at 2 h [4]: 19 ×10⁻⁶ cm/s | Papp (Caco-2 cell monolayers): 19 × 10^− 6 cm/s | CLR [5]: 67.5 mL/min | Overall weighted mean CLR [5]: 67.5 mL/min | CLR Observed [5]: 67.50 mL/min | Ionisation at pH 6.5 [6]: Base

CCCNC(=O)NS(=O)(=O)c1ccc(Cl)cc1 [Chlorpropamide]
Apparent Freab [1]: 0.907 | Apparent Freab’ [1]: 0.915 | Freab [1]: 0.91 | Papp,ref,calibrated [2]: 111.60 × 10^− 6 cm/s | logD [7]: 0.56 | Papp A→B at 2 h [4]: 88.1 ×10⁻⁶ cm/s | Papp (Caco-2 cell monolayers): 88.1 × 10^− 6 cm/s | CLR [5]: 0.56 mL/min | Overall weighted mean CLR [5]: 0.6 mL/min | CLR Observed [5]: 0.56 mL/min | pKa ([8]; pKa (acid)): 4.69 | Ionisation at pH 6.5 [6]: Acid

C[C@@H](c1ncncc1F)[C@](O)(Cn1cncn1)c1ccc(F)cc1F [Voriconazole]
Papp,ref,calibrated [2]: 134.68 × 10^− 6 cm/s | logD [7]: 1.7 | logD [3]: 1.7 | Papp A→B at 2 h [4]: 96.5 ×10⁻⁶ cm/s | Papp (Caco-2 cell monolayers): 96.51 × 10^− 6 cm/s | CLR [5]: 1.57 mL/min | Overall weighted mean CLR [5]: 1.6 mL/min | CLR Observed [5]: 1.57 mL/min | Ionisation at pH 6.5 [6]: Neutral

C=CCOc1ccccc1OCC(O)CNC(C)C (centres unmarked) [Oxprenolol]
Apparent Freab [1]: 0.443 | Apparent Freab’ [1]: 0.447 | Freab [1]: 0.44 | Papp,ref,calibrated [2]: 12.00 × 10^− 6 cm/s | logD [3]: 0.23 | Papp A→B at 2 h [4]: 30 ×10⁻⁶ cm/s | Papp (Caco-2 cell monolayers): 29.95 × 10^− 6 cm/s | CLR [5]: 9.35 mL/min | Overall weighted mean CLR [5]: 9.4 mL/min | CLR Observed [5]: 9.35 mL/min | pKa ([8]; pKa (base)): 9.6 | Ionisation at pH 6.5 [6]: Base

NCC1(CC(=O)O)CCCCC1 [Gabapentin]
Apparent Freab [1]: 0.183 | Apparent Freab’ [1]: 0.185 | Freab [1]: 0.18 | Papp A→B (in vitro): 0.67 ×10⁻⁶ cm/s | CLR [5]: 95.1 mL/min | Overall weighted mean CLR [5]: 95.1 mL/min | CLR Observed [5]: 95.05 mL/min | Ionisation at pH 6.5 [6]: Zwitterion

C[C@@H]1CN(c2c(F)c(N)c3c(=O)c(C(=O)O)cn(C4CC4)c3c2F)C[C@H](C)N1 [Sparfloxacin]
Apparent Freab [1]: 0.731 | Apparent Freab’ [1]: 0.737 | Freab [1]: 0.73 | Papp,ref,calibrated [2]: 34.35 × 10^− 6 cm/s | Papp A→B at 2 h [4]: 49.8 ×10⁻⁶ cm/s | Papp (Caco-2 cell monolayers): 49.83 × 10^− 6 cm/s | CLR [5]: 21.7 mL/min | Overall weighted mean CLR [5]: 21.7 mL/min | CLR Observed [5]: 21.69 mL/min | pKa ([8]; pKa (acid)): 6.31 | pKa ([8]; pKa (base)): 8.94 | Ionisation at pH 6.5 [6]: Zwitterion

NS(=O)(=O)c1cc(C(=O)O)c(NCc2ccco2)cc1Cl [Furosemide]
increase in urine flow compared to control conditions [9]: up to 20 mL/ min
